Assay results: patent US20240082212A1, “USE OF MDMA FOR TREATMENT OF STRESS-RELATED DISORDERS” (priority 2022, published 2024)

Columns and labels:
Serotonin 5-HT2A = Serotonin 5-HT2A (Homo sapiens, UniProt P28223); experiment: Eurofins Panlabs radioligand binding panel, serotonin 5-HT2A
Serotonin 5-HT2C = target: T1, Serotonin 5-HT2C (Homo sapiens, UniProt P28335); experiment: biochemical; type: binding
T1 sequence (P28335 33-458): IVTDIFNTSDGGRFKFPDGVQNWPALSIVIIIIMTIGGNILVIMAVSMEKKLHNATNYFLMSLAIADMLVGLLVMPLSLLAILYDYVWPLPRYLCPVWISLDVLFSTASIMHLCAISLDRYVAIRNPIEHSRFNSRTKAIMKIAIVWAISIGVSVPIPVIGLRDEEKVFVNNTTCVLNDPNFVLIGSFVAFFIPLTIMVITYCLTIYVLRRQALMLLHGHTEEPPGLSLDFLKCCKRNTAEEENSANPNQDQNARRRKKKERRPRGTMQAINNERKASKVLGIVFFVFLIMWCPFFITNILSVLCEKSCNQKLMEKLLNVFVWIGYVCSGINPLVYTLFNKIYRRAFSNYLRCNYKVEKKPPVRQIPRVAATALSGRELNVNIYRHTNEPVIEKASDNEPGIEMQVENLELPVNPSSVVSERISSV

[1] = target: Nicotinic acetylcholine α3β4 (Homo sapiens, UniProt P30926+P32297); experiment: Eurofins Panlabs radioligand binding panel, nicotinic acetylcholine α3β4
C57BL/6 mice = experiment: Mouse locomotor activity over 11 days after single administration
Protocol: Methods. Male C57BL/6 mice (n=10-12 per group) from Jackson Laboratories, US (10-12 weeks of age), were assigned randomly to treatment groups. The animals were acclimated to the laboratory for at least five days prior to experimental manipulation. […] Standard rodent chow and water were available ad libitum, except during experimental test sessions. Animals were maintained in a controlled environment, and temperature and humidity were recorded continuously in the holding room.
The animal procedures were conducted according to established and approved protocols. On each experimental day, animals were acclimated to a procedure room adjacent to the testing room for at least 30 minutes prior to the start of experimental sessions. To evaluate acute compound effects on activity, an animal was administered a single dose of test article 30 minutes prior to individual placement in a novel test chamber on experimental day 1. Activity was detected using photo beams (e.g., 16×16 beams with a space of 2 cm between beams, Med Associates®) and recorded using the Activity Monitor™ program designed by Med Associates®. The primary endpoint was total distance traveled (cm), as a measure of locomotion. Additional activity measures included total ambulatory counts, ambulatory time (sec), vertical counts and vertical time (sec). All endpoints were recorded and analyzed over a 30-minute test period. At the end of the test session, each animal was returned to its home cage. To evaluate potential lasting effects on activity following single administration of compounds, each animal was re-evaluated in the same test chamber on experimental days 2, 6, and 11, without additional test article administration.
Animals were randomly assigned to treatment groups and testing was conducted in a manner counterbalancing treatment groups. Activity measures were analyzed statistically using 2-way analysis of variance (ANOVA) with experimental day as the within-subjects factor and treatment as the between-subjects factor. Following a significant overall ANOVA (p<0.05), post hoc comparisons between test article and vehicle conditions were made using Fisher's Least Significant Difference (LSD, p<0.05).

[2] = read-out: % inhibition of binding or activity
[3] = R-MDMA all 3 dose levels (10, 17, 30 mg/kg IP), only on Day 1
[4] = racemic MDMA 7.8 mg/kg IP, Day 1, persisted out to Day 2, vs vehicle
[5] = racemic MDMA 7.8 mg/kg IP, any day of testing (Days 1, 2, 6, 11)

Chain of Serotonin 5-HT2A (P28223 whole entry): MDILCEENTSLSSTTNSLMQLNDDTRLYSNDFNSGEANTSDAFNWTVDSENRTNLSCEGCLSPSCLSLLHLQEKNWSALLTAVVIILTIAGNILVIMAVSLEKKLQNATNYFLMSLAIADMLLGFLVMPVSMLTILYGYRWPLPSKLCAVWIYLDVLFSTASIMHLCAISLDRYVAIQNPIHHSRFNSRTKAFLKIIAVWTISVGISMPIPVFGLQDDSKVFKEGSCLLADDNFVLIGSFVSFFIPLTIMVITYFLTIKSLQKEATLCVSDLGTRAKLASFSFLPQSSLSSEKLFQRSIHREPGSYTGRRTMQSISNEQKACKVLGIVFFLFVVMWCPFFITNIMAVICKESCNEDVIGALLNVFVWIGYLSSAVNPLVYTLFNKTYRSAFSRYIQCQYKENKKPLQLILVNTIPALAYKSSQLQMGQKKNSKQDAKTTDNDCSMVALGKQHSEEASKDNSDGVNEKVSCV
Chain of Nicotinic acetylcholine α3β4 (P32297 32-505): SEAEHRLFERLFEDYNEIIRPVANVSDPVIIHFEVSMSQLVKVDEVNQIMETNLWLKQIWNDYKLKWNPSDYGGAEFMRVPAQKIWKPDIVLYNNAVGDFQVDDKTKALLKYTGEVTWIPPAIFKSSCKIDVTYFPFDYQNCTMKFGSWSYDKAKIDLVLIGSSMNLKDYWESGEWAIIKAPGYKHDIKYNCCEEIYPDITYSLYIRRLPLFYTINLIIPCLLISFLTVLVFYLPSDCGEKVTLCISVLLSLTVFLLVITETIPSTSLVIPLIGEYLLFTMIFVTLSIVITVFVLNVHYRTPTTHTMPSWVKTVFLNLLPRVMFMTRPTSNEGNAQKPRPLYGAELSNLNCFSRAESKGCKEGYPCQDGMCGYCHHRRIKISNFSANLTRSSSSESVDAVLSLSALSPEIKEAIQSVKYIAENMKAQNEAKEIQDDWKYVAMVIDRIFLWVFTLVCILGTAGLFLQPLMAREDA
Chain of Nicotinic acetylcholine α3β4 (P30926 22-498): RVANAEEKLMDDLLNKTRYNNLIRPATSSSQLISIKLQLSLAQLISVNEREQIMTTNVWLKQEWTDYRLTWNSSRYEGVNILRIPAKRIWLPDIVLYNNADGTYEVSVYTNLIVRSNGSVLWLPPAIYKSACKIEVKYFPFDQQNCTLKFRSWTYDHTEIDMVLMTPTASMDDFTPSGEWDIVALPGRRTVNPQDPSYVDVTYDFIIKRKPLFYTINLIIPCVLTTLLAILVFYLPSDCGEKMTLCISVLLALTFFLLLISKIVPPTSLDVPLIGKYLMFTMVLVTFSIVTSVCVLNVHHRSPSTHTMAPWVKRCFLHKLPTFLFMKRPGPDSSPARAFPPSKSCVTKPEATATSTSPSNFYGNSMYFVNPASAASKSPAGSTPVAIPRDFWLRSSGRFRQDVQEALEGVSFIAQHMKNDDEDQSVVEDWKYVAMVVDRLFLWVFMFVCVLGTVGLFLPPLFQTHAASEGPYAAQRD

| Structure (SMILES) | IC50 (Serotonin 5-HT2A) [µM] | Ki (Serotonin 5-HT2A) [µM] | inhibition at 10 µM (Serotonin 5-HT2C; [2]) [%] | inhibition at 10 µM [1, 2] [%] | total ambulatory time (C57BL/6 mice; R-MDMA 2 highest doses (17, 30 mg/kg IP), only on Day 1) | total distance traveled (C57BL/6 mice; R-MDMA 10, 17, 30 mg/kg IP, any dose, any day of testing) | total vertical counts (C57BL/6 mice; [3]) | total vertical time (C57BL/6 mice; [3]) | total ambulatory counts (C57BL/6 mice; R-MDMA highest dose (30 mg/kg IP), only on Day 1) | total vertical time (C57BL/6 mice; R-MDMA lowest dose (10 mg/kg IP), day 2 only) | % inhibition of binding or activity (Serotonin 5-HT2A; 10 uM) [%] | % inhibition of binding or activity (Serotonin 5-HT2C; 10 µM) [%] | % inhibition of binding or activity ([1]; 10 uM) [%] | total distance traveled (C57BL/6 mice; racemic MDMA 7.8 mg/kg IP, Day 1, persisted out to Day 2, 30-minute test, vs vehicle) | total ambulatory counts (C57BL/6 mice; [4]) | total ambulatory time (C57BL/6 mice; [4]) | total vertical counts (C57BL/6 mice; [5]) | total vertical time (C57BL/6 mice; [5]) |
| --- | --- | --- | --- | --- | --- | --- | --- | --- | --- | --- | --- | --- | --- | --- | --- | --- | --- | --- |
| CNC(C)Cc1ccc2c(c1)OCO2 (single isomer, unassigned) [R-MDMA, R(−)-3,4-methylenedioxymethamphetamine] | 9.91 | 2.83 | 78 | 55 | significantly increased | no significant increase | significantly reduced | significantly reduced | significantly increased | significant increase |  |  |  |  |  |  |  |  |
| CNC(C)Cc1ccc2c(c1)OCO2 (racemic) [Racemic MDMA, 3,4-methylenedioxymethamphetamine] |  |  |  |  |  |  |  |  |  |  | 59 | 87 | 66 | significantly increased | increased | increased | did not alter | did not alter |
